Results: patent US10988465B2, “CXCR4 inhibitors and uses thereof” (X4 Pharmaceuticals, Inc., priority 2016, dated 2021)
pIC50: −log10 of the molar value.

Experiments:
[1] = biological target: T1, CXCR-4 transfected U87 cell line (U87.CXCR4) (Homo sapiens, UniProt P61073); test: Intracellular CXCL-12-induced calcium mobilization assay (FLIPR); format: cell-based; conditions: U87.CXCR4 cells; CXCL-12 25-50 ng/mL; compound added 15 min before; read-out: IC50 CXCL-12 Ca^2+ flux U87.CXCR4+
T1 construct: expressed in transfected cells; host or cells: U87 (U87.CXCR4)
T1 sequence (P61073 whole entry): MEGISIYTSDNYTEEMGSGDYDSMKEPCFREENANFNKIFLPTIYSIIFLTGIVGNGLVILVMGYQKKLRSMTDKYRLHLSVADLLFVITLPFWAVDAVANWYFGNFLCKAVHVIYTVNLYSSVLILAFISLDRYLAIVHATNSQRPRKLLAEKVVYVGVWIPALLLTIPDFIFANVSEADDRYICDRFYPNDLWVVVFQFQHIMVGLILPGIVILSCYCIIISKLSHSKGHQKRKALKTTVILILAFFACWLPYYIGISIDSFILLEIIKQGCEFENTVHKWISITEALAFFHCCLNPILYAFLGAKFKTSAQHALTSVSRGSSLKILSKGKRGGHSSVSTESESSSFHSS
Description: Example 36: REGA Screening Assay
Intracellular CXCL-12-Induced Calcium Mobilization Assay
Intracellular calcium mobilization induced by chemokines or chemokine-derived peptides were evaluated using a calcium responsive fluorescent probe and a FLIPR system. The CXCR-4 transfected U87 cell line (U87.CXCR4) cells were seeded in gelatine-coated black-wall 96-well plates at 20,000 cells per well and incubated for 12 hours. Cells were then loaded with the fluorescent calcium probe Fluo-2 acetoxymethyl at 4 μM final concentration in assay buffer (Hanks' balanced salt solution with 20 mM HEPES buffer and 0.2% bovine serum albumin, pH 7.4) for 45 min at 37° C. The intracellular calcium mobilization induced by the CXCL-12 (25-50 ng/mL) was then measured at 37° C. by monitoring the fluorescence as a function of time in all the wells simultaneously using a fluorometric imaging plate reader (FLIPR Tetra, Molecular Devices).

[2] = biological target: T2, Jurkat cells expressing CXCR4 (Homo sapiens, UniProt P61073); test: Chemokine (CXCL12-AF647) binding inhibition assay; conditions: CXCL12-AF647 25 ng/mL, read-out: IC50 CXCL-12 binding Jurkat
T2 construct: endogenous in cells; host or cells: Jurkat
T2 sequence (P61073 whole entry): as above
Description: Chemokine (CXCL12-AF647) Binding Inhibition Assay
Jurkat cells expressing CXCR4 were washed once with assay buffer (Hanks' balanced salt solution with 20 mM HEPES buffer and 0.2% bovine serum albumin, pH 7.4) and then incubated for 15 min at room temperature with the test compounds diluted in assay buffer at dose-dependent concentrations. Subsequently, CXCL12-AF647 (25 ng/mL) was added to the compound-incubated cells. The cells were incubated for 30 min at room temperature. Thereafter, the cells were washed twice in assay buffer, fixed in 1% paraformaldehyde in PBS, and analyzed on the FL4 channel of a FACSCalibur flow cytometer equipped with a 635-nm red diode laser (Becton Dickinson, San Jose, Calif., USA).
The percentages of inhibition of CXCL12-AF647 binding were calculated according to the formula: [1−((MFI−MFINC)/(MFIPC−MFINC))]×100 where MFI is the mean fluorescence intensity of the cells incubated with CXCL12-AF647 in the presence of the inhibitor, MFINC is the mean fluorescence intensity measured in the negative control (i.e., autofluorescence of unlabeled cells), and MFIPC is the mean fluorescence intensity of the positive control (i.e., cells exposed to CXCL12-AF647 alone).

in vitro = conditions: human, Caco-2, pH 7.4
Description: Example 37: Caco-2 Permeability Assay
The goal of this assay was to evaluate the intestinal absorption potential of drug candidates using Caco-2 cell lines.
HBSS buffer with 0.3% DMSO and 5 μM LY: add 150 μL DMSO and 50 μL LY (5 mM) into 50 ml HBSS buffer (pH 7.4).
HBSS buffer with 0.1% DMSO and 5 μM LY: add 50 μL DMSO and 50 μL LY (5 mM) into 50 mL HBSS buffer (pH 7.4).
HBSS buffer with 0.3% DMSO: add 150 μL DMSO into 50 ml HBSS buffer (pH 7.4).
HBSS buffer with 0.1% DMSO: add 50 μL DMSO into 50 ml HBSS buffer (pH 7.4).
Prepare HBSS buffer with 0.4% DMSO: add 200 μL DMSO into 50 ml HBSS buffer (pH 7.4).
Prepare HBSS buffer with 0.4% DMSO and 5 μM LY: add 200 μL DMSO and 50 μL LY (5 mM) into 50 ml HBSS buffer (pH 7.4).
4. Measure TEER Take cell culture plate out of incubator, wash the cell monolayers with HBSS buffer, and then measure TEER values at Rm temperature. 5. Centrifuge Centrifuge the compound solution (from step 3) at 4000 rpm for 5 min before loading to donor chambers. 6. Dosing Add solution based on the volumes listed in the following table (make sure to take extra 100 μL of donor sample for T0 as Backup).
7. Apical LYT0 samples To determine LY concentration in the apical chember, take 100 μL sample from apical chambers into an opaque plate for LYT0. 8. Prewarm Prewarm apical and basolateral plates at 37° C. for about 5 min, then begin transport by placing the apical plate onto basolateral plate. 9. Incubation Keep the plates in incubator at 37° C. for 90 min. 10. Standard Curve preparation
11. Transport termination Separate the apical plate from the basolateral plate after 90-min incubation.
Receiver sample: 60 μL of receiver sample+60 μL ACN with IS (Osalmid or Imipramine)
Study details: Test concentration 10 μM
Test systems: Caco-2/HBSS solution
Incubation conditions: 0, 90 min at 37° C.
Sample size: Duplicates (n=2)
Bioanalytical method: LC-MS/MS
For Millicell-24 Cell Culture Plates: surface area of the membrane=0.7 cm^2, VA=0.8 mL (A-to-B) or 0.4 mL (B-to-A)
1. Papp values were calculated based on calculated concentrations.
The compound numbers correspond to the compound numbers in Table 1.

| pIC50 [1] | pIC50 [2] | Papp A→B at 90 min, 10 μM (in vitro) | Papp B→A at 90 min, 10 μM (in vitro) | efflux ratio at 90 min, 10 μM (in vitro) | Compound |
| --- | --- | --- | --- | --- | --- |
| 7.00 to 11.00 | 7.00 to 11.00 | 0.1 to 10 ×10⁻⁶ cm/s | 10 to 30 ×10⁻⁶ cm/s | 0.1 to 10 | CN1CCC(c2cccc3nc([C@H]4CCC[C@@H](c5ncccc5Cl)N4)[nH]c23)CC1 [I-152] |
| 6.00 to 7.00 | 7.00 to 11.00 | 0.1 to 10 ×10⁻⁶ cm/s | 10 to 30 ×10⁻⁶ cm/s | 10 to 30 | Cc1cccnc1[C@@H]1CCC[C@H](c2nccn2C2CCNCC2)N1C [I-179] |
| 6.00 to 7.00 | 7.00 to 11.00 | 0.1 to 10 ×10⁻⁶ cm/s | > 30 ×10⁻⁶ cm/s | 0.1 to 10 | CN(C)CCCn1ccnc1[C@H]1CCC[C@@H](c2ncccc2Cl)N1C [I-169] |
| 7.00 to 11.00 | 7.00 to 11.00 | 10 to 30 ×10⁻⁶ cm/s | 10 to 30 ×10⁻⁶ cm/s | 0.1 to 10 | CCc1cccnc1[C@@H]1CCC[C@H](c2nc3cccc(N4CCN(C)CC4)c3[nH]2)N1C [I-114] |
| 7.00 to 11.00 | 7.00 to 11.00 | 10 to 30 ×10⁻⁶ cm/s | 10 to 30 ×10⁻⁶ cm/s |  | [2H]C([2H])([2H])N1[C@@H](c2nc3cccc(N4CCN(C)CC4)c3[nH]2)CCC[C@H]1c1ncccc1C [I-112] |
| ≤ 6.00 | ≤ 6.00 | > 30 ×10⁻⁶ cm/s | > 30 ×10⁻⁶ cm/s | 0.1 to 10 | Cc1cccnc1[C@@H]1CCC[C@H](c2nccn2Cc2ccccc2-n2cccn2)N1 [I-167] |
| 7.00 to 11.00 | 7.00 to 11.00 | 10 to 30 ×10⁻⁶ cm/s | 10 to 30 ×10⁻⁶ cm/s | 0.1 to 10 | CN1CCC(n2c([C@H]3CCC[C@@H](c4ncccc4Cl)N3)nc3ccccc32)CC1 [I-135] |
| 6.00 to 7.00 | 7.00 to 11.00 | 10 to 30 ×10⁻⁶ cm/s | 10 to 30 ×10⁻⁶ cm/s | 0.1 to 10 | CN1CCC(n2c([C@H]3CCC[C@@H](c4ccccn4)N3)nc3ccccc32)CC1 [I-154] |

Further lines, the compound ahead of its results:

| Compound | pIC50 [1] | pIC50 [2] | Papp A→B at 90 min, 10 μM (in vitro) | Papp B→A at 90 min, 10 μM (in vitro) | efflux ratio at 90 min, 10 μM (in vitro) |
| --- | --- | --- | --- | --- | --- |
| Cc1cccnc1[C@@H]1CCC[C@H](c2nc3ccccc3n2CCCN2CCN(C)CC2)N1C [I-17, 2-((2R,6S)-1-methyl-6-(3-methylpyridin-2-yl)piperidin-2-yl)-1-(3-(4-methylpiperazin-1-yl)propyl)-1H-benzo[d]imidazole] | 7.00 to 11.00 | 7.00 to 11.00 | 0.1 to 10 ×10⁻⁶ cm/s | 0.1 to 10 ×10⁻⁶ cm/s | 0.1 to 10 |
| CO[C@@H]1C[C@H](c2nc3cccc(N4CCN(C)CC4)c3[nH]2)N(C)[C@H](c2ncccc2C)C1 [I-102] | 6.00 to 7.00 | 7.00 to 11.00 | 0.1 to 10 ×10⁻⁶ cm/s | 10 to 30 ×10⁻⁶ cm/s | 0.1 to 10 |
| Cc1cccnc1[C@@H]1CCC[C@H](c2nc3ccccc3n2CC2CCNCC2)N1C [I-14, 2-((2R,6S)-1-methyl-6-(3-methylpyridin-2-yl)piperidin-2-yl)-1-(piperidin-4-ylmethyl)-1H-benzo[d]imidazole] | 7.00 to 11.00 | 7.00 to 11.00 | 0.1 to 10 ×10⁻⁶ cm/s | 10 to 30 ×10⁻⁶ cm/s | > 30 |
| Cc1cccnc1[C@@H]1CCC[C@H](c2nc3cccc(N4CC5CCC(C4)N5)c3[nH]2)N1C [I-98] | 7.00 to 11.00 | 7.00 to 11.00 | 0.1 to 10 ×10⁻⁶ cm/s | 10 to 30 ×10⁻⁶ cm/s | > 30 |
| [2H]C([2H])([2H])N1CCN(c2cccc3nc([C@H]4CCC[C@@H](c5ncccc5C)N4C)[nH]c23)CC1 [I-111] | 7.00 to 11.00 | 7.00 to 11.00 | 10 to 30 ×10⁻⁶ cm/s | 10 to 30 ×10⁻⁶ cm/s |  |
| Cc1cccnc1[C@@H]1CCC[C@H](c2nc3c(Br)ccc(Br)c3n2CC2CCN(C)CC2)N1C [I-47] | 6.00 to 7.00 | 7.00 to 11.00 | 0.1 to 10 ×10⁻⁶ cm/s | 10 to 30 ×10⁻⁶ cm/s | 0.1 to 10 |
| COc1cccnc1[C@@H]1CCC[C@H](c2nc3cccc(N4CCN(C)CC4)c3[nH]2)N1C [I-62] | 7.00 to 11.00 | 7.00 to 11.00 | 0.1 to 10 ×10⁻⁶ cm/s | 10 to 30 ×10⁻⁶ cm/s | 0.1 to 10 |
| Cc1nccnc1[C@@H]1CCC[C@H](c2nc3cccc(N4CCN(C)CC4)c3[nH]2)N1C [I-105] | ≤ 6.00 | 6.00 to 7.00 | 0.1 to 10 ×10⁻⁶ cm/s | 10 to 30 ×10⁻⁶ cm/s | 0.1 to 10 |
| Cc1cccnc1[C@@H]1CCC[C@H](c2nc3cccc(N4C[C@@H](C)N(C)[C@@H](C)C4)c3[nH]2)N1C [I-54] | 7.00 to 11.00 | 7.00 to 11.00 | 10 to 30 ×10⁻⁶ cm/s | 10 to 30 ×10⁻⁶ cm/s | 0.1 to 10 |
| Cc1cccnc1[C@H]1CCC[C@@H](c2nc3cccc(N4CCN(C)CC4)c3[nH]2)N1C (single isomer, unassigned) [I-3b] | 7.00 to 11.00 | 7.00 to 11.00 | 0.1 to 10 ×10⁻⁶ cm/s | 0.1 to 10 ×10⁻⁶ cm/s |  |
| Cc1cccnc1[C@@H]1CCC[C@H](c2nc3cccc(N4CCNC(C)(C)C4)c3[nH]2)N1C [I-52] | 7.00 to 11.00 | 7.00 to 11.00 | 0.1 to 10 ×10⁻⁶ cm/s | 10 to 30 ×10⁻⁶ cm/s | 10 to 30 |
| CN1CCN(c2cccc3nc([C@H]4CCC[C@@H](c5ccccn5)N4C)[nH]c23)CC1 [I-29, 2-((2R,6S)-1-methyl-6-(pyridin-2-yl)piperidin-2-yl)-7-(4-methylpiperazin-1-yl)-1H-benzo[d]imidazole] | 6.00 to 7.00 | 7.00 to 11.00 | 10 to 30 ×10⁻⁶ cm/s | 10 to 30 ×10⁻⁶ cm/s | 0.1 to 10 |
